# Test results published in patent publication US9682151B2, “Peptides whose uptake in cells is controllable” (The Regents of the University of California, priority 2009, dated 2017).
# Where two headings read alike, the source gives them in different places.
# What was measured:
# [1] = mouse, in vivo
# Procedure: Peptides conjugated to 5 kD PEG and 12 kD PEG were injected into nude mice bearing HT-1080 xenografts at a dose of 6 nmoles per animal (FIG. 24). […] As controls, a scrambled version of the PLGLAG (SEQ ID NO: 1) cleavable sequence denoted as LALGPG (SEQ ID NO: 48) and a d-amino acid version of the PLGLAG (SEQ ID NO: 1) sequence denoted as plglag were also injected. […] Because of what was what was available at the time, the polyoma transgenic mice were tested in wildtype and iNOS−/− backgrounds.
# As the last molecule in the large molecular weight carrier series, 1725 was a fifth generation PAMAM dendrimer conjugated to two MMP cleavable selective transport molecules. The remaining 126 attachment sites were capped with succinyl groups. […] This molecule was injected into both HT-1080 tumor bearing nude transgenic PyMT mice at varying concentrations.
# recombinant MMP-9 = target: T1, recombinant MMP-9 (Homo sapiens, UniProt P14780); experiment: Enzyme cleavage assay of albumin reacted maleimide peptide; format: biochemical; conditions: 50 nM MMP-9
# T1 construct: purchased EMD Biosciences
# Procedure: (§1) Maleimide peptides were initially reacted with mouse serum albumin (Sigma) at 40 mg/mL or fresh frozen mouse plasma for one hour. Samples were run on a tricine buffered 10-20% polyacrylamide gel and imaged for Cy5 fluorescence on a UVP gel imager. For the enzyme cleavage assay, Cy5-monomaleimide and the cleavable maleimide peptides were reacted as 2 nmol with mouse serum albumin at 40 mg/mL in 25 mM hepes buffer. The stock was then diluted 1:[…] with 50 nM of recombinant MMP-9 (EMD Biosciences) and digested for 20 minutes and 4 hours then run on a tricine gel and imaged by Cy5.
# (§2) Malemide selective transport molecule was reacted mouse serum albumin and plasma in aqueous conditions to determine that peptide reacts with albumin in a test tube. […] Plasma seemed to give somewhat more complete reaction.
# mouse serum albumin = target: T2, mouse serum albumin (Mus musculus, UniProt P07724); experiment: Reaction of maleimide peptide with albumin; conditions: within an hour of mixing, PAGE
# T2 construct: Albumin reactive selective transport molecules create a robust reaction with native albumin; purchased Sigma
# Procedure: as §1, §2
# [2] = tested on: HT1080 human fibrosarcoma; experiment: Optical imaging of albumin reactive peptides in HT1080 tumor bearing mice; format: in vivo; conditions: 3 nmols IV, 24 hours
# Procedure: (§3) Nude mice were injected with 2×^06HT1080 human fibrosarcoma cells in the left #2 mammary fat pad. Experiments were performed 5-7 days post injection. Polyoma Middle T mice (PyMT) were provided by Lesley Ellies and they were injected with peptide IV between 9-12 wks of age when medium to large sized tumors were present in each mammary fat pad. One million mouse mammary adenocarcinoma 4T1.2 cells (from Robyn Anderson, University of Melbourne) were injected into the left mammary fat pad of nude mice (FIGS. 4 and 7) and Balb/c mice (FIGS. 8 and 9) and 5-20 days later were injected with peptide and imaged.
# (§4) When tumors were of sufficient size 5-20 days after injection of tumor cells the peptide was injected IV and imaged on the Maestro small animal imager (CRI). Animals were sacrificed by overdose with Isoflurane and dissected. To examine lung metastases, the lungs were inflated with OCT cryoprotectant and imaged on the small animal imager. Blood measurements were taken by bleeding the tail vein at a specified time point and collected in a capillary tube. The tubes were then imaged for presence of the Cy5 fluorescent peptide using the small animal imager. For processing of tissues for gels, 30 mg of tissue was homogenized in a 1% SDS Tris buffer then heated at 80° C. for 10 min and centrifuged. The supernatant was then diluted 1:10 and run on a tricine gel and imaged by fluorescence. […]
# HT1080 bearing mice = experiment: Maximum tolerated dose of pDox
# [3] = Stability of pDox by analytical HPLC and mass spectra; format: physicochemical
# Procedure: pDox dendrimers were synthesized with the intent to coat the dendrimers with one pDox and three Cy5s thus making the dendrimers brightly fluorescent in the far-red. The pDox dendrimer samples that were incubated overnight in pH 7.4 and pH 5 buffer as described previously were injected on HPLC/mass spec. HPLC was run using 30-60% Acetonitrile in water with 0.5% TFA gradient on a reverse phased column. Doxorubicin (470-490) and Cy5 (645-655) absorbance peaks were monitored to reveal a new doxorubicin peak in the pH 5 sample. This peak was proven to be free pDox based upon the mass spec. For quantitation, dendrimers were run on another HPLC using a different C18 reverse phase column with a 10-90% ACN gradient column with 0.14% TFA which has a fluorescence detector. […] To quantify the amount of pDox that was hydrolyzed off the dendrimer, 200 pmols of sample was injected and compared to a standard curve of 12, 36, and 60 pmols of pDox alone.
# pDox was synthesized and reacted with the dendrimer via hydrazone linker as done with doxorubicin dendrimers discussed earlier. […] The labeling was so low that the absorbance was undetectable by UV Spectroscopy. It was only by fluorescence spectra measured on a plate reader that it was clear pDox was conjugated to the dendrimers but this was not able to be quantified. […]
# cells = experiment: Toxicity of podophyllotoxin conjugate in cell culture; format: cell-based
# Text: (§5) Therefore we synthesized Suc-e8-xPLGLAG-r9-c(ss-podophyllotoxin) to test in cell culture. […] In order to decide upon a starting dose, we tested podophyllotoxin by itself to determine the effective dose for shrinking tumors.
# [4] = tested on: HT1080 human fibrosarcoma; conditions: for toxicity: 44 μmol/kg
# Procedure: A selective transport molecule-Podophyllotoxin (selective transport molecule-podo) conjugate by reacting podo-ss-pyridine with Suc-e8-xPLGLAG-r9-c, purified by HPLC and confirmed by mass spectrometry. The peptide was stored as a TFA salt and the yield was determined by mass. For animal experiments, athymic nude mice were injected with 1×0^6HT1080 human fibrosarcoma cells in the mammary fat pad. After one week when tumors were 30-50 mm^3 mice were injected IP once every other day for a total of three times with 10 μmol/kg of either podophyllotoxin, selective transport molecule alone, or selective transport molecule-podo.
# as §5
# Three mice in each treatment group were injected with 3 doses, one dose every other day.
# [5] = tested on: HT-1080 tumor bearing nude / transgenic PyMT mice; conditions: mouse, in vivo
# Procedure: Animals expressing the polyoma middle T transgene (PyMT) driven by the MMTV promoter were obtained from Lesley Ellies. Nude animals bearing HT-1080 xenografts were either generated in house or were obtained from Explora Biosciences. Either way, tumors were used once they reached a diameter of […]. Animals were anesthetized with ketamine/midazolam (80 mg/kg, 40 mg/kg) and injected with the indicated construct through the tail vein Animals were typically observed throughout the first hour as they woke up from anesthesia. They were re-anesthetized and imaged at six hours, 12 hours, 24 hours and 48 hours as needed. After the last imaging session, animals were sacrificed by overdose of halothane. The imaging system used evolved over time. For most of the PEGylated conjugates, a simple light box was used, though the image shown is one of the first taken with the Maestro spectral deconvolution imager. The albumin, dextran and PAMAM dendrimer conjugates were tested using a 620/20 excitation filter and collecting images at 680 nm. The streptavidin conjugates were tested using a 640/48 excitation filter, with images collected at 700 nm.
# Standardized Uptake Values were initially measured without tissue specific calibrations and were later re-adjusted to take tissue specificity and a light source change into account. […]
# 4T1.2 tumor = experiment: Plasma pre-reaction of maleimide peptide, blood levels and tumor fluorescence; format: in vivo, mice; conditions: 48 hours
# Procedure: as §3, §4
# [6] = tested on: HT1080 human fibrosarcoma; conditions: 48-100 μmol/kg after multiple doses; cited from earlier work
# HT1080 tumor = experiment: Doxorubicin conjugated dendrimers in HT1080 tumor bearing mice; format: in vivo; conditions: single dose
# Procedure: In multiple experiments, HT1080 bearing nude mice were injected with a single specific dose of doxorubicin dendrimer. […] Mouse weights and tumor volumes were measured regularly. For the urea and the Peg hydrazone dendrimers, mice were imaged spectrally 7 days after injection. Using the Maestro (CRI) spectral deconvolution system and software, doxorubicin fluorescence (red) was separated out from autofluorescence (green). Tumors were removed and imaged by spectral deconvolution and brightfield. For aromatic and thioether dendrimers there were 4 mice for each treatment group but only 2 mice for the urea and Peg hydrazone dendrimers because of limited dendrimer synthesis yields.
# [7] = 10 μmol/kg IP, 3 doses, one every other day
# T2 sequence (P07724 25-608): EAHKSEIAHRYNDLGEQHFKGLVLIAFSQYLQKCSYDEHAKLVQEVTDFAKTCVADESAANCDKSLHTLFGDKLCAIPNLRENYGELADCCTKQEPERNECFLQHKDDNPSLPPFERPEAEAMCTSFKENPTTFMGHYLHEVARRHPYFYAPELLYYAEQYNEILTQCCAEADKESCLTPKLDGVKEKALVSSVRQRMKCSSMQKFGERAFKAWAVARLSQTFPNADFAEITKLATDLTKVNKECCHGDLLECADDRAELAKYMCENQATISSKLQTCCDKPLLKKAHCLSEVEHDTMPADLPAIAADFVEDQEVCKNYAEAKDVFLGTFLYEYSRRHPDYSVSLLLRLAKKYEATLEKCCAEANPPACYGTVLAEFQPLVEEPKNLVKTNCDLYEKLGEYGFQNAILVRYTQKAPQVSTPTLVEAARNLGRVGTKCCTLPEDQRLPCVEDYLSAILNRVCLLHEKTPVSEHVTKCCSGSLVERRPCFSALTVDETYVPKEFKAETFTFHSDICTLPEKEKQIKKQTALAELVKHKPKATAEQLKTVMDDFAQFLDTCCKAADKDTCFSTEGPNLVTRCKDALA
# T1 sequence (P14780 94-707, species assumed): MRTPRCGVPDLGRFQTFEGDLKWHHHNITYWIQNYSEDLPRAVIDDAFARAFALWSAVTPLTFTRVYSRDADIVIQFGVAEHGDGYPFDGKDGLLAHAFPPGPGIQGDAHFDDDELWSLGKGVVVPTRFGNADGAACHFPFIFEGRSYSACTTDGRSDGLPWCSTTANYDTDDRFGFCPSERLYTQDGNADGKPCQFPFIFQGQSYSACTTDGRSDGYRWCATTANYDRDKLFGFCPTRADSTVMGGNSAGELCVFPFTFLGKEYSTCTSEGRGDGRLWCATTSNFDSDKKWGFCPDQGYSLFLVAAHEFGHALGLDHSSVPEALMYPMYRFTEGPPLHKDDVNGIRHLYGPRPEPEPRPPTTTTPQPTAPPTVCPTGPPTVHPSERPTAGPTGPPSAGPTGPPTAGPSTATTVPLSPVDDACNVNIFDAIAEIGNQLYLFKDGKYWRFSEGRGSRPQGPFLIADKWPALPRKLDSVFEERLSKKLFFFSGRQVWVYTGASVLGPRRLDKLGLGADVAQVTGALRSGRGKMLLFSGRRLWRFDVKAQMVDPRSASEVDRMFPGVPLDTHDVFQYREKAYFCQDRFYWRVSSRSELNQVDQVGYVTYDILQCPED
compound,measurement,setting,value
Streptavidin-[e9-XPLGLAG-r9-k(cy5)]4,Approx Plasma Halflife,[1],~4 h
mal-e9-oPLG(Cme)AG-r9-c(cy5),time to near complete cleavage off albumin,recombinant MMP-9,less than 4 hours
same,reaction with mouse serum albumin or plasma,mouse serum albumin,most of the peptide reacted with MSA or plasma albumin
same,tumor uptake (Cy5 fluorescence),[2],much greater with the cleavable peptide compared to the uncleavable peptide
Suc-e8-xPLGLAG-r9-c(Cy5),tumor uptake (Cy5 fluorescence),[2],difficult to detect
Generation 5 PAMAM-(e9-XPLGLAX-r9-k(cy5))2(succ)126,"blood halflife, first phase (biphasic)",[1],under 10 minutes
same,"blood halflife, second phase (biphasic)",[1],10 to 15 h
"COc1cccc2c1C(=O)c1c(O)c3c(c(O)c1C2=O)C[C@@](O)(C(=O)CO)C[C@@H]3O[C@H]1C[C@H](N2C=CCC2)[C@H](O)[C@H](C)O1 [pDox, 2-pyrrolino doxorubicin]",effect on tumor growth,HT1080 bearing mice; 0.1 mg/kg,significantly slowed tumor growth
same,lethality,"HT1080 bearing mice; 0.3 and 1 mg/kg, two mice each",died within 24 hours
same,maximum tolerated dose,HT1080 bearing mice; HT1080 bearing mice,0.1 mg/kg
same,stability,[3],severe stability problems
12kD-PEG-e9-XPLGLAG-r9-k(cy5),Approx Plasma Halflife,[1],~20 m
same,blood halflife,[1],approximately 20 minutes
Suc-e8-xPLGLAG-r9-c(ss-podophyllotoxin) [selective transport molecule-podo],toxicity on cells,cells,submicromolar toxicity
same,body weight,"[4]; 10 μmol/kg IP, 3 doses",lost significant weight
same,effect on tumor growth,[4]; [7],modest slowing of growth
same,toxicity,[4],acutely toxic
G5PAMAM-[e9-OPLG(MeC)AG-r9-k(cy5)][PEG]127],liver uptake relative to PLGLAX dendrimer,[5],decrease by a factor of two
Cy5-monomaleimide,tumor fluorescence / uptake,4T1.2 tumor,significantly less fluorescence
G5-PAMAM-[e9-XPLGLAX-r9-k(cy5)]2[PEG]126,Approx Plasma Halflife,[1],~20 h
same,blood halflife,[1],over 10 hours
G5PAMAM-[e9-XPLGLAG-r9-k(cy5)][PEG]127 [G5PAMAM-[e9-XPLGLAG-r9-k(cy5)] [PEG]127],tumor uptake relative to PLGLAX dendrimer,[5],decreased tumor uptake
"COc1cc([C@@H]2c3cc4c(cc3[C@H](O)[C@H]3COC(=O)[C@H]23)OCO4)cc(OC)c1OC [podophyllotoxin, reference compound]",toxicity (literature),[6],minimal toxicity
same,effect on tumor growth,[4]; [7],not efficacious
same,effect on tumor growth,"[4]; 10 μmol/kg IP, 3 doses, one every other day, listed as Podo",no therapeutic activity or toxicity
same,toxicity,[4],no obvious signs of toxicity
same,effect on tumor growth,[4]; 3 injections at 44 μmol/kg every other day,sufficient to significantly slow tumor growth but not provide a cure
COc1cccc2c1C(=O)c1c(O)c3c(c(O)c1C2=O)C[C@@](O)(C(=O)CO)C[C@@H]3O[C@H]1C[C@H](N)[C@H](O)[C@H](C)O1 [doxorubicin],anti-tumor activity (qualitative),HT1080 tumor,continually beat the dendrimers in anti-tumor activity
